# Measured values published in patent US9957230B2, “Synergistic compositions” (Cadila Healthcare Limited, priority 2013, dated 2018).
# Experiments:
# Type in all cases: in vivo
# db/db mice [1] = experiment: Antidiabetic activity with Exenatide or Glimepiride in db/db mice (studies VII and VIII): non-fasting serum glucose; details: Compound Ia 0.1 mg/kg
# Excerpt: The in-vivo efficacy for antidiabetic activity was done in male and female db/db mice of 12-16 weeks of age. Generally obese and diabetic animals are insulin resistant and have abnormalities in glucose and lipid metabolism. The development of diabetes and beta cell dysfunction in these animal models closely parallels the pathophysiology of the disease condition in humans. […] They progressively develop into insulinopenia with age, a feature commonly observed in last stage of type-2 diabetes, when blood sugar levels are insufficiently controlled. Therefore, this genetic model proves to be suitable for predicting the likely therapeutic benefit of novel euglycemic agents in human type-2 diabetes.
# (§1) In this experiment, 49 db/db mice of 12-16 week were divided into 7 groups and as per their day 0 serum glucose levels. […] Detail treatments and routes of administrations were mentioned in Table no. 27. The treatment was given once daily for 7 days.
# (§2) The blood was collected by retro-orbital sinus puncture method under light ether anesthesia on day 0 (pretreatment) and on day 6 (one hour after dose administration) for non-fasting glucose analysis and oral glucose tolerance test (OGTT) was performed on day 7 of the treatment in fasting condition. After blood collection serum was separated and analyzed glucose analysis using Spectra max and commercial diagnostic kits. The OGTT procedure followed is as given below—
# (§3) The calculation for antidiabetic activity i.e. effect on serum glucose and improvement in glucose Area Under Curve (AUC) was calculated using the excel sheet and Graph Pad Prism software. The day-0 and day-6 glucose values of vehicle control and treatment were considered for calculating the effect on serum glucose. The effect on glucose AUC was calculated using the OGTT glucose levels at different time points and the improvement in glucose AUC were the reduction in glucose AUC after the treatment during OGTT.
# db/db mice [2] = experiment: Oral glucose tolerance test in db/db mice (studies VII and VIII); details: Compound Ia 0.1 mg/kg, Glimepiride 2 mg/kg p.o.; for % improvement in AUC glucose vs control: Table 31 and text, OGTT after 7 days of treatment
# Excerpt: as §1, §2
# Oral Glucose Tolerance Test (OGTT): One day before OGTT all animals were kept on overnight fasting and on the day of OGTT, day 7 of the treatment each animal was dosed with a single dose of vehicle/test compounds administered orally and 60-min post dosing blood was collected (0 min) and glucose load (2 gm/kg/10 ml) administered per orally. Blood was then collected at time points corresponding to 30, 60 and 120 min after glucose load administration. Serum was separated and analyzed for glucose using Spectra max and commercial diagnostic kits.
# as §3
# db/db mice [3] = experiment: Antidiabetic activity in db/db mice (studies I and II): non-fasting serum glucose; details: Compound (Ia) 0.1 mg/kg
# Excerpt: The in-vivo efficacy for antidiabetic activity was done for (I) and (II) individually with db/db mice of 13-14 weeks of age.
# 8. […] 8. The treatment was given oral gavages once daily for 14 days. […]
# db/db mice [4] = experiment: Oral glucose tolerance test in db/db mice (studies I and II); details: Table 10; OGTT day 14, fasting, glucose load 2 gm/kg; Compound (Ia) 0.1 mg/kg, Sitagliptin 3 mg/kg p.o.
# Excerpt: 8. […] 8. The treatment was given oral gavages once daily for 14 days.
# The OGTT procedure followed is as given below—
SMILES,"Serum Glucose (mg/dl) Day 0 (db/db mice [1]; Table 30, Day 0 (pretreatment), male and female db/db mice, Glimepiride 2 mg/kg p.o. once daily)","Serum Glucose (mg/dl) Day 6 (db/db mice [1]; Table 30, Day 6, one hour after dose, non-fasting, Glimepiride 2 mg/kg p.o. once daily)","% Change Day 6 vs Day 0 (db/db mice [1]; Table 30, serum glucose, Glimepiride 2 mg/kg p.o.)","% Change Vs control (db/db mice [1]; Table 30 and text, serum glucose day 6 vs vehicle control, Glimepiride 2 mg/kg p.o.)","AUC Glucose (db/db mice [2]; Table 31, OGTT day 7, fasting, glucose load 2 gm/kg)",% improvement in AUC glucose vs control (db/db mice [2]),% improvement in AUC glucose vs control (db/db mice [2]; listed as glimepiride),"Serum Glucose (mg/dl) Day 0 (db/db mice [3]; Table 9, Day 0 (pretreatment), female db/db mice, Sitagliptin 3 mg/kg p.o. once daily)","Serum Glucose (mg/dl) Day 12 (db/db mice [3]; Table 9, Day 12, non-fasting, female db/db mice, Sitagliptin 3 mg/kg p.o. once daily)","% Change Vs control (db/db mice [3]; Table 9, serum glucose day 12 vs vehicle control, Sitagliptin 3 mg/kg p.o. once daily)","% Change Day 12 vs Day 0 (db/db mice [3]; Table 9, serum glucose, Sitagliptin 3 mg/kg p.o. once daily)","reduction in serum glucose (db/db mice [3]; female db/db mice, Sitagliptin 3 mg/kg, Metformin 150 mg/kg)",AUC Glucose (db/db mice [4])
"CCC1=C(C)CN(C(=O)NCCc2ccc(S(=O)(=O)NC(=O)N[C@H]3CC[C@H](C)CC3)cc2)C1=O [Glimepiride, reference compound]",402.0 mg/dL,506.7 mg/dL,26.9%,10.1%,62529.0 mg·min/dL,−2.6%,does not any improvement,–,–,–,–,–,–
"N[C@@H](CC(=O)N1CCn2c(nnc2C(F)(F)F)C1)Cc1cc(F)c(F)cc1F [Sitagliptin, reference compound]",–,–,–,–,–,–,–,407.9 ± 34.5 mg/dL,485.3 ± 50.5 mg/dL,18.5 ± 5.0%,18.3 ± 5.0%,does not show any reduction rather it has shown slight increase in serum glucose,64655.9 ± 6300.6 mg·min/dL
